From US20220372162A1, “PCT/US2020/066088” (TeneoFour, Inc., priority 2019, published 2022)
“Also recorded” adds a separate entry of the source.

How the values were obtained:
[1] = test system: sirtuin activity in CD38 positive Ramos cells; experiment: Sirtuin activity assay (SIRT-GLO) in CD38 positive Ramos cells; type: cell-based; conditions: 24 h
Excerpt: To quantify sirtuin activity, Promega's one-step SIRT-GLO™ assay was used. The reagent formulation contains an acetylated lysine attached to aminoluciferin, along with a peptide sequence derived from p53. Upon deacetylation of the lysine by a sirtuin, the deacetylated peptide becomes a substrate for the developer reagent present in the reaction mixture. This yields free aminoluciferin that reacts with luciferase to give a luminescent signal that is stable and quantifiable.
CD38 positive Ramos cells were treated with a bispecific, bivalent three chain binding compound as depicted in FIG. 11, Panel D, or isotype control, in a 96 well plate (2×10^5 cells/well). After 24 h, the plate was centrifuged at 500 g for 5 minutes, and the cells were washed with 1×PBS followed by centrifugation. The cell pellet was resuspended in 50 μL of M-PER Mammalian Protein extraction reagent on ice. The cells were transferred to 1.5 mL tubes and homogenized for 30 seconds. The lysate was centrifuged at 14,000 rpm for 5 minutes at 4° C. The supernatant was incubated with 1:30 of anti-SIRT1 antibody (Abcam #32441) for 4 h on a rotator at 4° C. Protein A slurry (25 μL per 50 μL of lysate) was added and further incubated for 2 h at room temperature Immunoprecipitation (IP) buffer (Pierce #28379) was added (500 μL per tube) followed by centrifugation at 2500 g for 2 minutes. The wash step with IP buffer was repeated and 50 μL of IgG elution buffer (Pierce #21004) was added. After 5 minutes of incubation at room temperature, the eluate was centrifuged at 2500 g for 2 minutes. The supernatant was immediately neutralized with 1 M Tris (pH 9), 10 μL per 100 μL eluate. The eluate was used in the SIRT GLO™ assay (Promega #G6450) at a 1:1 ratio with the SIRT GLO™ reagent, per the manufacturer's instructions.
CD38 positive Ramos cells were treated with a bispecific, bivalent three chain binding compound (depicted in FIG. 11, Panel D) in combination with nicotinamide mononucleotide (NMN) at a concentration of 400 nM, or isotype control, in a 96 well plate (2×10^5 cells/well). After 24 h, the plate was centrifuged at 500 g for 5 minutes, and the cells were washed with 1×PBS followed by centrifugation. The cell pellet was resuspended in 50 μL of M-PER Mammalian Protein extraction reagent on ice. The cells were transferred to 1.5 mL tubes and homogenized for 30 seconds. The lysate was centrifuged at 14,000 rpm for 5 minutes at 4° C. The supernatant was incubated with 1:30 of anti-SIRT1 antibody (Abcam #32441) for 4 h on a rotator at 4° C. Protein A slurry (25 μL per 50 μL of lysate) was added and further incubated for 2 h at room temperature Immunoprecipitation (IP) buffer (Pierce #28379) was added (500 μL per tube) followed by centrifugation at 2500 g for 2 minutes. […]

Daudi cells [2] = experiment: Direct apoptosis / direct cytotoxicity of Daudi cells; type: cell-based
Experimental: (§1) Induction of direct apoptosis was assessed by Annexin-V and 7-AAD staining using flow cytometry. Annexin-V is commonly used to detect apoptotic cells by its ability to bind to phosphatidylserine, a marker of apoptosis when it is present on the outer leaflet of the plasma membrane. 7-AAD binds to double stranded DNA that is taken up by dying or dead cells with compromised membranes. The CD38 positive cell lines used in this study were Daudi and Ramos cells.
(§2) A quad gate was used to distinguish between early apoptotic (Annexin-V+, 7-AAD−), late apoptotic (Annexin-V+, 7-AAD+), and viable cells (Annexin-V−, 7-AAD−). Concentration of binding compound was plotted against percent viability in Graphpad Prism 8. The resulting plot was fitted to a non-linear regression to determine EC50.

Ramos cells [3] = experiment: NAD+ assay in Ramos cells; type: cell-based; conditions: presence of NMN compared to absence of NMN, FIG. 19
Experimental: (§3) Studies were performed to assess whether blocking the ecto-NMNase activity of CD38 with the subject binding compounds causes an increase in the NMN-mediated increase in NAD+ within the CD38 expressing B cell lines Ramos and Daudi. The assay is based on the enzymatic cycling reaction in which NAD+ is reduced to NADH. NAD+ reacts with a colorimetric probe that produces a colored product. The intensity of the color is proportional to the NAD+ and NADH within a sample. Oxidized form is selectively destroyed by heating in basic solution, while reduced form is not stable in acidic solution.
(§4) Daudi or Ramos cells (2×10^5) were treated with antibody at a 5 nM concentration for 14 h. NAD+ was measured using an NAD+/NADH cycling assay kit (Cell Biolabs #MET-5014). Briefly, cell lysates were prepared in extraction buffer by homogenization, centrifugation at 4° C. at 14,000 rpm for 5 minutes, and deproteination through a 10 kDa spin filter. […] After 3 h, color development was read at 450 nm.
(§5) Daudi or Ramos cells (2×10^5) were treated with antibody at a 5 nM concentration in the presence or absence of 400 nM NMN for 14 h. NAD+ was measured using the NAD+/NADH cycling assay kit (Cell Biolabs #MET-5014). […] After 3 h, color development was read at 450 nm.

Daudi cells [4] = experiment: NAD+ assay in Daudi cells; type: cell-based; conditions: presence of NMN compared to absence of NMN, FIG. 19
Experimental: as §3, §4, §5

[5] = test system: CD38 negative cell lines (293-Freestyle, HL-60, K562, CHO); experiment: Off target cell binding by flow cytometry (Example 10); conditions: K562 and HL-60 cells, FIG. 23
Experimental: On target and off target cell binding of a bispecific, bivalent three chain binding compound as depicted in FIG. 11, Panel D, was assessed. The binding compound was formulated at a concentration of 0.97 mg/mL in 20 mM Citrate, 100 mM NaCl, pH 6.2. Test substance was stored frozen at −80° C. until the day of use. Binding to CD38 positive and CD38 negative cell lines was assessed using flow cytometry. The CD38 positive cell lines used were Daudi, Ramos, and a CHO cell line transfected to stably express CD38. The CD38 negative cell lines used were 293-Freestyle, HL-60, K562, and CHO.
The average MFI of unstained wells was set as the background signal. To calculate fold over background of each experimental sample, the experimental sample MFI was divided by the average background MFI.

[6] = test system: Xeno-GvHD in NOD scid gamma (NSG) mice; experiment: Xeno-GvHD model, human PBMCs in NSG mice; type: in vivo
Experimental: Xeno-GvHD was induced using 1.5 grays of radiation to facilitate colonization of human PBMCs in NOD scid gamma (NSG) mice. […] Survival was monitored until day 50. GvHD clinical score was determined mainly based on weight loss, posture, activity and fur texture. […] In contrast, the animals treated with PBMCs+PBS or PBMCs+mCD38 lost body weight quickly and were sacrificed before day 25 because of more than 20% weight loss. The survival, body weight, and clinical score data are shown in FIGS. 30, 31 and 32, respectively.

Ramos cells [7] = experiment: Direct apoptosis of Ramos cells; type: cell-based; conditions: Annexin-V and 7-AAD staining, flow cytometry, FIG. 24
Experimental: as §1, §2

CD4 T cells = experiment: T-cell proliferation and IFNγ production in mixed lymphocyte reaction (MLR); type: cell-based
Experimental: Various binding compounds in accordance with embodiments of the invention were assessed for their ability to inhibit CD38 hydrolase activity without activating a mixed lymphocyte reaction (MLR). MLR occurs when MHC mismatched immune cells interact, triggering an immune response by T cell hyperproliferation and exacerbated cytokine release. […] The binding compounds were formulated at a concentration of 0.97 mg/mL in 20 mM Citrate, 100 mM NaCl, pH 6.2. Test substance was stored frozen at −80° C. until the day of use.
Analyses were performed to assess CD4 T cell proliferation and IFNγ production. The results are depicted in FIG. 20. […] The percentage of CD4 T cell proliferation is also shown in Panel C for a variety of other binding compounds.

[8] = target: T1, human CD38 expressed on CHO cells (Homo sapiens, UniProt P28907); experiment: Cell-based CD38 hydrolase activity, UniAb mixtures, bivalent and tetravalent formats (FIGS. 7, 8, 12, 16); conditions: tetravalent UniAbs with human IgG4 Fc region, FIG. 16; read-out: IC50, inhibition of hydrolase activity of human CD38 expressed on CHO cells
T1 construct: expressed in transfected cells; host or cells: CHO cells stably expressing human CD38
Experimental: After incubation, ε-NAD^+ (BioLog Cat. No. N010) was added to a final concentration of 150 μM. Production of a fluorescent product was measured at 1 hour (ex 300 nm/em 410 nm) using a Spectramax i3x plate reader (Molecular Devices). Hydrolase enzyme inhibition was assessed by comparing signal from UniAb™-treated wells to the percent of total enzymatic activity observed when CD38 protein was treated with an isotype control antibody (max).

Question: NC(=O)c1ccc[n+]([C@@H]2O[C@H](COP(=O)([O-])O)[C@@H](O)[C@H]2O)c1 [NMN, nicotinamide mononucleotide, reference compound] was tested. Which “sirtuin activity, luminescence (in words)” value (from here on “sirtuin activity”) ([1]; NMN 400 nM, FIG. 28) did it give?
Answer: did not result in an increase in sirtuin activity

Question: For “Isatuximab: antibody against CD38 in clinical trials for Multiple Myeloma; VH SEQ ID NO: 30, VL SEQ ID NO: 31 [reference compound]”, which “direct cytotoxicity of Daudi cells (in words)” value (Daudi cells [2]; FIG. 10) is on record?
Answer: potently kill Daudi cells

Question: What about the “direct apoptosis of Daudi cells (in words)” value (Daudi cells [2]; in 24 hours, stated with the NAD+ study) of the same molecule?
Answer: causes direct apoptosis

Question: And the “intracellular NAD+ levels (in words)” value (Ramos cells [3])?
Answer: subtle difference in NAD+ increase

Question: What about the “intracellular NAD+ levels (in words)” value (Daudi cells [4]) of the same molecule?
Answer: not Daudi

Question: With “TNB-738: bispecific, bivalent three chain anti-human CD38 molecule, FIG. 11 Panel D, comprising F11A and F12A VH sequences” as the molecule, how does the “direct apoptosis of Daudi cells (in words)” value (Daudi cells [2]; Annexin-V and 7-AAD staining, flow cytometry, FIG. 24) read?
Answer: did not cause direct apoptosis

Question: And the “intracellular NAD+ levels (in words)” value (Ramos cells [3])?
Answer: remarkably increased the NAD+ levels

Question: What about the “off target cell binding (in words)” value [5] of the same molecule?
Answer: does not bind

Question: What about the “sirtuin activity” value ([1]; NMN 5 nM, 50 nM or 500 nM, FIG. 29) of the same molecule?
Answer: further increased in a dose-dependent manner by the presence of increasing concentrations of NMN

Question: And the “sirtuin activity” value ([1]; NMN 400 nM, FIG. 28)?
Answer: further increased by the presence of NMN

Question: And the “sirtuin activity” value ([1]; no NMN, FIG. 26)?
Answer: dose-dependent increase in sirtuin activity

Question: What about the “prevention of GvHD (in words)” value ([6]; clinical score based on weight loss, posture, activity and fur texture) of the same molecule?
Answer: prevention of GvHD; also recorded: able to successfully prevent GvHD

Question: And the survival ([6]; day 50 after PBMC injection, treatments twice weekly until day 18)?
Answer: 100%

Question: And the “intracellular NAD+ levels (in words)” value (Daudi cells [4])?
Answer: remarkably increased the NAD+ levels

Question: And the “direct apoptosis of Ramos cells (in words)” value (Ramos cells [7])?
Answer: did not cause direct apoptosis

Question: For “Daratumumab: antibody specific for human CD38, approved in 2015 for Multiple Myeloma”, which “percentage of CD4 T cell proliferation in MLR (in words)” value (CD4 T cells; FIG. 20, Panel A) is on record?
Answer: did result in an increase

Question: What about the “IFNγ production in MLR (in words)” value (CD4 T cells; compared to IgG4 istp control, FIG. 20, Panel B) of the same molecule?
Answer: caused an increase

B1: CD38F12A_2GS_CD38F11A: tetravalent bispecific UniAb, FIG. 11 Panel B format, distal VH CD38F12A, GS linker, proximal VH CD38F11A, human IgG4 Fc region (antibody)
heavy: GVQLVESGGGLVQPGGSLRLSCTASGFTFSSSWMSWVRQAPGKGLEWVANIKQDGSEKDYVDSAKGRFTISRDNAKNSLYLQMNNLRAEDTAVYYCARDRRGPFFHIWGQGTLVTVSSGGGGSQVQLVESGGGVVQPGRSLRLSCAASGFTFSSYGMHWVRQAPGKEREWVAVISDDGSNKYYADSVKGRFTISRDNSKNTLYLQMNSLRVEDTAVYYCAKDRGTMRVVVYDTLDIWGQGTLVTVSS
modifications: left off: a dimerising Fc or GST
Question: B1 was tested. Which IC50 [8] did it give?
Answer: 4.5 nM
